According to US9321791B2, “8-[3-amino-piperidin-1-yl]-xanthines, the preparation thereof and their use as pharmaceutical compositions” (Boehringer Ingelheim International GmbH, priority 2002, dated 2016):

Tested on: rats
Assay: Tolerability after oral administration to rats
Format: in vivo
Conditions: 10 mg/kg

CC#CCn1c(N2CCC[C@@H](N)C2)nc2c1c(=O)n(Cc1ncc3ccccc3n1)c(=O)n2C [2(80), 1-[(quinazolin-2-yl)methyl]-3-methyl-7-(2-butyn-1-yl)-8-((R)-3-amino-piperidin-1-yl)-xanthine]
changes in the animals' behaviour: no changes in the animals' behaviour could be detected
